Assay results reported in US7378387B2, “Method of suppressing immune response by reducing intracellular content of glutathione in macrophages and monocytes” (Ajinomoto Co., Inc., priority 1997, dated 2008).

Assays:
[1] = system: reductive glutathione in MΦ; assay: GSH content in MΦ of JaK3 knock out mice by ACAS after free intake in city water (Example 6); format: in vivo; conditions: free intake of city water containing 1 mg/ml, 24 days
Experimental: Three-hundred microliters of a cell suspension adjusted concentration of 3×10^5 cells/ml in an RPMI 1640 medium (phenol red-free) were charged into a chambered coverglass (#136439, supplied by Nunc), and incubated at 37° C. for 2 hours using a CO2 incubator. The culture solution was washed with the medium, and 300 μl of monochlorobimane (supplied by Molecular Plobe) adjusted to 10 μM in the same medium were added thereto. The mixture was charged into a CO2 incubator of 37° C., and the reaction was conducted for 30 minutes. The fluorescent intensity was measured with ACAS. In ACAS, a UV laser was used.
Macrophages (MΦ) were prepared from knock out mice deficient in a molecule participating in a signal transduction system from a receptor, and the function of the redox system was analyzed. […] Methods applied in Example 2 was repeated. JaK3 knock out mice were divided into three groups. A control group was a group of usual city water free-intake. An NAC group was a group of free intake of city water containing 1 mg/ml of NAC. A GSH-OEt group was a group of free intake of city water containing 1 mg/ml of GSH-OEt. […]
Peritoneal cells of knock out mice which had undergone the respective treatments were harvested, and the GSH content in the cells was analyzed using ACAS with MCB. […]

IL-12 = IL-12 production from macrophages induced through administration (Example 9, Table 1); format: in vivo, DBA/2 mice; conditions: LPS 100 ng/ml, IFNγ 100 units/ml
Experimental: The amount of IL-12 was determined through bioassay using cells of human T cell strain 2D6 (J. Leukocyte Biology, vol. 61, p. 346, 1997).
2D6 cells which had been incubated in an RPMI 1640 medium containing 500 pg/ml of recombinant human IL-12, 50 μM of 2-mercaptoethanol and 10% FCS (fetal calf serum) were moved to a tube, and centrifugally washed three times with the above-mentioned medium without IL-12 and cell density was adjusted to 1×10^5/ml. The cell suspension was added in an amount of 100 μl each to a 96-well flat bottom plate containing a sample serially diluted in advance with an RPMI 1640 medium containing 50 μM of 2-mercaptoethanol and 10% FCS in an amount of 100 μl each. Subsequently, the mixture was charged into a 5% […] incubator of 37° C., and incubated for 48 hours. For final 6 hours, ^3H-TdR was pulsed (a substance adjusted to 370 kBq/ml in an RPMI 1640 medium containing 50 μM of 2-mercaptoethanol and 10% FCS was added in an amount of 50 μl each). The cells a harvested, and the radioactivity was measured using a β counter (Matrix 96, supplied by Packard).
The increase in the amounts of oxidative macrophages can easily be determined visually from the fact that almost no reaction product with monochlorobimane is observed, namely, a gray or blue image is provided, and the increase in the amounts of reductive macrophages from the fact that a red or yellow image is provided respectively. […] Meanwhile, the same examination was conducted by harvesting peritoneal exudate cells after 20 hours of the administration of 2 mg of N-acetylcystine (NAC).
Thus, the peritoneal exudate adherent cells were incubated in the following manner, and the amounts of NO and IL-12 produced in the culture supernatant were measured. With respect to the amount of IL-6, the amount of IL-6 produced spontaneously in the absence of a stimulator was measured.
Cells: The peritoneal exudate adherent cells obtained by the stimulation, namely, the macrophages were added to a 96-well microplate in an amount of 1×10^5 cells/200 μl each.
Medium: Phenol red-free RPMI 1640: 200 μl/well
LPS: Lipopolysaccharide (made by Sigma Co.) (origin: E. coli) 100 ng/ml

[2] = system: adjuvant-induced arthritis; assay: Adjuvant-induced arthritis (AA) in rats, joint swelling (Examples 18 and 19); format: in vivo, Lewis rats
Experimental: Adjuvant-induced arthritis was triggered in Lewis rats in a conventional manner; and the effects of chemical agents were examined in the animals. Adjuvant-induced arthritis is well known as an experimental arthritis inducible in rats [Taurog et al., Meth. Enzymol. 162, 339-355 (1988)]. […] An adjuvant is administered at 1 mg/0.1 ml per rate at a site of caudal root. The edema reaches its peak about 2 to 3 weeks after the administration of the adjuvant. The edema is triggered by inflammatory infiltration of monocytes. Swollen joints are measured with a micrometer every day; comparing the diameters of the joints prior to and after adjuvant administration and after initiation of the treatment with chemical agents with the diameters of the joints in the control group, the effects of the chemical agents were expressed as the ratio in % of joint swelling in the experimental groups to joint swelling in the control group. The effects were determined on day 15 after adjuvant administration. The chemical agents were given, starting the day next to the day of adjuvant administration, and every 3 days thereafter.
A single dose is 1 mg/kg for (NAC)2 and (NAC-OMe)2; 100 mg/kg for NAC; and 0.1 mg/kg for lentinan.
Adjuvant-induced arthritis was induced in Lewis rats in a conventional manner. In the same manner as in Example 11, the effects of chemical agents were examined in these rats. The conditions were the same as described above.

[3] = Table 3, day 15 after adjuvant, every 3 days, single dose 1 mg/kg (NAC)2 and (NAC-OMe)2, 100 mg/kg NAC, 0.1 mg/kg lentinan

CC(=O)N[C@@H](CS)C(=O)O [NAC, N-acetylcysteine, reference compound]
content of reductive glutathione in MΦ in comparison with control mice [1]: markedly increased
IL-12, amount produced relative to that of control group (IL-12): 920%
Ratio in % of joint swelling in experimental groups to joint swelling in control group [2, 3]: 132%
Ratio in % of joint swelling in experimental groups to joint swelling in control group ([2]; Table 4, oral): 142%

CC(=O)N[C@@H](CSSC[C@H](NC(C)=O)C(=O)O)C(=O)O [(NAC)2, N,N′-diacetylcystine]
IL-12, amount produced relative to that of control group (IL-12): 15%
Ratio in % of joint swelling in experimental groups to joint swelling in control group [2, 3]: 96%
Ratio in % of joint swelling in experimental groups to joint swelling in control group ([2]; Table 4, intravenous): 95%

CCOC(=O)CNC(=O)[C@H](CS)NC(=O)CC[C@H](N)C(=O)O [GSH-OEt, glutathione monoethyl ester]
content of reductive glutathione in MΦ in comparison with control mice [1]: markedly increased

COC(=O)[C@H](CSSC[C@H](NC(C)=O)C(=O)OC)NC(C)=O [(NAC-OMe)2, N,N′-diacetylcystine dimethyl ester]
IL-12, amount produced relative to that of control group (IL-12): 11%
Ratio in % of joint swelling in experimental groups to joint swelling in control group [2, 3]: 50%
Ratio in % of joint swelling in experimental groups to joint swelling in control group ([2]; Table 4, intravenous): 42%
